Experimental findings from patent US11173151B2, “Substituted triazole derivatives and uses thereof” (BAYER AKTIENGESELLSCHAFT, priority 2017, dated 2021) are described below.

One experiment deals with T1, human V1a receptor (Homo sapiens, UniProt P37288).
T1 construct: expressed in transfected cells; host or cells: CHO K1 (ATCC), also stably transfected with a modified aequorin
Description: Cellular in vitro assay for determining vasopressin receptor activity, V1a receptor cell line (CHO, aequorin luminescence). Format: cell-based. Conditions: for IC50: CHO cell line transfected with human V1a receptor, [Arg]-vasopressin at EC50 concentration, read-out: IC50 hV1a; for ratio IC50 hV2/hV1a: selectivity ratio IC50 hV2 / IC50 hV1a. A digest of the protocol: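 Luminescence from reconstituted aequorin, reporting intracellular calcium release, was measured immediately after adding [Arg]-vasopressin at EC50 concentration to CHO K1 cells pretreated 10 minutes with graded compound concentrations. Inhibition gave IC50 values.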

The target of a further experiment is T2, human V2 receptor (Homo sapiens, UniProt P30518).
T2 construct: expressed in transfected cells; host or cells: CHO K1 (ATCC) expressing firefly luciferase under a CRE-responsive promoter
T2 sequence (P30518 whole entry): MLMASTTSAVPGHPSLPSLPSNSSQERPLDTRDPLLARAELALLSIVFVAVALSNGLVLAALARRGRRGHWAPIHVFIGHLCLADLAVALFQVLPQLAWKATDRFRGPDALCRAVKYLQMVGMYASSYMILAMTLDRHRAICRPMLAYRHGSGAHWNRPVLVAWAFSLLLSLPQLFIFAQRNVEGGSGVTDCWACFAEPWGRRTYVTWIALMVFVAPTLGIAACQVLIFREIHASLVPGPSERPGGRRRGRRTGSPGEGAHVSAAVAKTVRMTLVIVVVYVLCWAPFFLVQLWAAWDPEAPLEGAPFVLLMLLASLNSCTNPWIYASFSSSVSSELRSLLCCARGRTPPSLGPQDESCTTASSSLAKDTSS
Description: Cellular in vitro assay for determining vasopressin receptor activity, V2 receptor cell line (CHO, CRE-luciferase). Format: cell-based. Conditions: CHO cell line transfected with human V2 receptor, [Arg8]-vasopressin at EC50 concentration, read-out: IC50 hV2.

Where two headings read alike, the source gives them in different places.

T1 sequence (P37288 whole entry): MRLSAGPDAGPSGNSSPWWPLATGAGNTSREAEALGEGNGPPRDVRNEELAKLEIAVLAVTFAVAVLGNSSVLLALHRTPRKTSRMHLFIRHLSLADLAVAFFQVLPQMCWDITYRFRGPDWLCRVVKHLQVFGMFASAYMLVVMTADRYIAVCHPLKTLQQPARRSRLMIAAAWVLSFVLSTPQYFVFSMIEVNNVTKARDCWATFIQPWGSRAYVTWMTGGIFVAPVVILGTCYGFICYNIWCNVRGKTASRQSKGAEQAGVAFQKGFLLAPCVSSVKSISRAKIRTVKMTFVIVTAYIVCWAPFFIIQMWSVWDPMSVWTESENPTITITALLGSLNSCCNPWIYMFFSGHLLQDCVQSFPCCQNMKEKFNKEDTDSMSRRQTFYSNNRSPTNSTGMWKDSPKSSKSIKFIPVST

A word on the IC50: it is the point on the concentration scale where inhibition reaches its midpoint. `O=C(N[C@H]1C[C@H]1F)c1cccnc1-n1cnc(Cn2nc(-c3ccc(Cl)cc3)n(C[C@H](O)C(F)(F)F)c2=O)n1` (racemic) [Example 504, 2-[3-({3-(4-Chlorophenyl)-5-oxo-4-[(2S)-3,3,3-trifluoro-2-hydroxypropyl]-4,5-dihydro-1H-1,2,4-triazol-1-yl}methyl)-1H-1,2,4-triazol-1-yl]-N-[2-fluorocyclopropyl]pyridine-3-carboxamide]: on human V1a receptor, the IC50 is 3.1 nM and the “ratio IC50 hV2/hV1a” value stood at 50.0. In addition, the IC50 on human V2 receptor turned out to be 155 nM.

Turning to `O=C1CN(c2nc(Cn3nc(-c4ccc(Cl)cc4)n(C[C@H](O)C(F)(F)F)c3=O)nn2-c2cccnc2C(=O)N[C@H]2C[C@@H]2F)CCN1` (racemic) [Example 507, 3-[3-({3-(4-Chlorophenyl)-5-oxo-4-[(2S)-3,3,3-trifluoro-2-hydroxypropyl]-4,5-dihydro-1H-1,2,4-triazol-1-yl}methyl)-5-(3-oxopiperazin-1-yl)-1H-1,2,4-triazol-1-yl]-N-[2-fluorocyclopropyl]pyridine-2-carboxamide], on human V1a receptor, the half-maximal inhibitory concentration (IC50) came out at 4500 nM and the “ratio IC50 hV2/hV1a” value was 7.1. Also, the IC50 at human V2 receptor came out at 32000 nM.

Consider `O=C1CN(c2nc(Cn3nc(-c4ccc(Cl)cc4)n(C[C@H](O)C(F)(F)F)c3=O)nn2-c2cccnc2C(=O)N[C@@H]2C[C@@H]2F)CCN1` (racemic) [Example 508, 3-[3-({3-(4-Chlorophenyl)-5-oxo-4-[(2S)-3,3,3-trifluoro-2-hydroxypropyl]-4,5-dihydro-1H-1,2,4-triazol-1-yl}methyl)-5-(3-oxopiperazin-1-yl)-1H-1,2,4-triazol-1-yl]-N-[2-fluorocyclopropyl]pyridine-2-carboxamide], for which, at human V1a receptor, the IC50 amounted to 5150 nM and the “ratio IC50 hV2/hV1a” value worked out at 4.6. Also, the IC50 at human V2 receptor came out at 23500 nM.

In the case of `O=C1CN(C(=O)c2nc(Cn3nc(-c4ccc(Cl)cc4)n(C[C@H](O)C(F)(F)F)c3=O)nn2-c2cnccc2C(=O)N[C@H]2C[C@H]2F)CCN1` (racemic) [Example 517, 3-{3-({3-(4-Chlorophenyl)-5-oxo-4-[(2S)-3,3,3-trifluoro-2-hydroxypropyl]-4,5-dihydro-1H-1,2,4-triazol-1-yl}methyl)-5-[(3-oxopiperazin-1-yl)carbonyl]-1H-1,2,4-triazol-1-yl}-N-[2-fluorocyclopropyl]pyridine-4-carboxamide], at human V1a receptor, the IC50 was 490 nM and the “ratio IC50 hV2/hV1a” value is reported as 3.8. The IC50 on human V2 receptor is 1840 nM.

Turning to `O=C(N[C@H]1C[C@H]1F)c1ccncc1-n1nc(Cn2nc(-c3ccc(Cl)cc3)n(C[C@H](O)C(F)(F)F)c2=O)nc1C(=O)N1CCS(=O)(=O)CC1` (racemic) [Example 523, 3-{3-({3-(4-Chlorophenyl)-5-oxo-4-[(2S)-3,3,3-trifluoro-2-hydroxypropyl]-4,5-dihydro-1H-1,2,4-triazol-1-yl}methyl)-5-[(1,1-dioxidothiomorpholin-4-yl)carbonyl]-1H-1,2,4-triazol-1-yl}-N-[2-fluorocyclopropyl]pyridine-4-carboxamide], at human V1a receptor, the IC50 worked out at 365 nM and the “ratio IC50 hV2/hV1a” value came to 3.0. Also, the IC50 on human V2 receptor worked out at 1100 nM.

As to `O=C1CN(C(=O)c2nc(Cn3nc(-c4ccc(Cl)cc4)n(C[C@H](O)C(F)(F)F)c3=O)nn2-c2ncccc2C(=O)N[C@H]2C[C@H]2F)CCN1` (racemic) [Example 527, 2-{3-({3-(4-chlorophenyl)-5-oxo-4-[(2S)-3,3,3-trifluoro-2-hydroxypropyl]-4,5-dihydro-1H-1,2,4-triazol-1-yl}methyl)-5-[(3-oxopiperazin-1-yl)carbonyl]-1H-1,2,4-triazol-1-yl}-N-[2-fluorocyclopropyl]pyridine-3-carboxamide], on human V1a receptor, the IC50 is 1080 nM and the “ratio IC50 hV2/hV1a” value is reported as 1.4. Also, the IC50 at human V2 receptor is 1530 nM.

For `O=C(N[C@H]1C[C@H]1F)c1cccnc1-n1nc(Cn2nc(-c3ccc(Cl)cc3)n(C[C@H](O)C(F)(F)F)c2=O)nc1C(=O)N1CCS(=O)(=O)CC1` (racemic) [Example 533, 2-{3-({3-(4-Chlorophenyl)-5-oxo-4-[(2S)-3,3,3-trifluoro-2-hydroxypropyl]-4,5-dihydro-1H-1,2,4-triazol-1-yl}methyl)-5-[(1,1-dioxidothiomorpholin-4-yl)carbonyl]-1H-1,2,4-triazol-1-yl}-N-[2-fluorocyclopropyl]pyridine-3-carboxamide], at human V1a receptor, the IC50 was 146 nM and the “ratio IC50 hV2/hV1a” value was 21.8. The IC50 at human V2 receptor was determined as 3180 nM.

`CC(C)(N)CNC(=O)c1nc(Cn2nc(-c3ccc(Cl)cc3)n(C[C@H](O)C(F)(F)F)c2=O)nn1-c1cnccc1C(=O)N[C@H]1C[C@H]1F` (racemic) [Example 535, 3-{5-[(2-amino-2-methylpropyl)carbamoyl]-3-({3-(4-chlorophenyl)-5-oxo-4-[(2S)-3,3,3-trifluoro-2-hydroxypropyl]-4,5-dihydro-1H-1,2,4-triazol-1-yl}methyl)-1H-1,2,4-triazol-1-yl}-N-[2-fluorocyclopropyl]pyridine-4-carboxamide]: on human V1a receptor, the IC50 was 82.5 nM and the “ratio IC50 hV2/hV1a” value was determined as 56.0. In addition, the IC50 on human V2 receptor was determined as 4620 nM.

For the molecule `O=C(Nc1ccncc1-n1cnc(Cn2nc(-c3ccc(Cl)cc3)n(C[C@H](O)C(F)(F)F)c2=O)n1)[C@@H]1C[C@@H]1F` (single isomer, unassigned) [Example 35], the IC50 is 10.5 nM at human V1a receptor and 553 nM at human V2 receptor (3 hours). Also, the “ratio IC50 hV2/hV1a” value on human V1a receptor is on record as 52.7.

Take `O=C(Nc1cccnc1-n1cnc(Cn2nc(-c3ccc(Cl)cc3)n(C[C@H](O)C(F)(F)F)c2=O)n1)C1CC1(F)F` (single isomer, unassigned) [Example 42]: at human V1a receptor, the IC50 turned out to be 23 nM and the “ratio IC50 hV2/hV1a” value worked out at 27.0. In addition, the IC50 on human V2 receptor (3 hours) stood at 620 nM.

`O=C(Nc1cccnc1-n1cnc(Cn2nc(-c3ccc(Cl)cc3)n(C[C@H](O)C(F)(F)F)c2=O)n1)C1CC1(F)F` (single isomer, unassigned) [Example 43]: at human V1a receptor, the IC50 was determined as 5.85 nM and the “ratio IC50 hV2/hV1a” value stood at 36.5. The IC50 at human V2 receptor (3 hours) was determined as 213 nM.

Regarding `O=C(Nc1cccnc1-n1cnc(Cn2nc(-c3ccc(Cl)cc3)n(C[C@H](O)C(F)(F)F)c2=O)n1)C1CCS(=O)(=O)C1` (single isomer, unassigned) [Example 51], on human V1a receptor, the IC50 was found to be 5 nM and the “ratio IC50 hV2/hV1a” value amounted to 153.0. The IC50 at human V2 receptor (3 hours) turned out to be 765 nM.

In the case of `O=C(Nc1cccnc1-n1cnc(Cn2nc(-c3ccc(Cl)cc3)n(C[C@H](O)C(F)(F)F)c2=O)n1)C1CCS(=O)(=O)C1` (single isomer, unassigned) [Example 52], the IC50 came out at 11.5 nM at human V1a receptor and 2000 nM at human V2 receptor (3 hours). Also, on human V1a receptor, the “ratio IC50 hV2/hV1a” value came out at 173.9.

On to `O=C(Nc1cccnc1-n1cnc(Cn2nc(-c3ccc(Cl)cc3)n(C[C@H](O)C(F)(F)F)c2=O)n1)C1CC1F` (single isomer, unassigned) [Example 55], for which the IC50 amounted to 3.65 nM on human V1a receptor and 695 nM on human V2 receptor (3 hours). Further, at human V1a receptor, the “ratio IC50 hV2/hV1a” value is 190.4.

`O=C(Nc1cccnc1-n1cnc(Cn2nc(-c3ccc(Cl)cc3)n(C[C@H](O)C(F)(F)F)c2=O)n1)C1CC1F` (single isomer, unassigned) [Example 56]: on human V1a receptor, the half-inhibitory concentration (IC50) came out at 4.4 nM and the “ratio IC50 hV2/hV1a” value was 92.0. Moreover, the IC50 at human V2 receptor (3 hours) came out at 405 nM.

Turning to `O=C(Nc1cccnc1-n1cnc(Cn2nc(-c3ccc(Cl)cc3)n(C[C@H](O)C(F)(F)F)c2=O)n1)C1CC1F` (single isomer, unassigned) [Example 60], the IC50 at human V1a receptor stood at 4.25 nM; on human V2 receptor (3 hours), 885 nM. For the same molecule, at human V1a receptor, the “ratio IC50 hV2/hV1a” value is on record as 208.2.

Regarding `O=C(Nc1cccnc1-n1cnc(Cn2nc(-c3ccc(Cl)cc3)n(C[C@H](O)C(F)(F)F)c2=O)n1)C1CC1F` (single isomer, unassigned) [Example 61], at human V1a receptor, the IC50 came to 4.35 nM and the “ratio IC50 hV2/hV1a” value is recorded as 111.5. Also, on human V2 receptor (3 hours), the IC50 was 485 nM.

`O=C(Nc1ncccc1-n1cnc(Cn2nc(-c3ccc(Cl)cc3)n(C[C@H](O)C(F)(F)F)c2=O)n1)C1CC1F` (single isomer, unassigned) [Example 77]: the figures for the IC50 at human V1a receptor and on human V2 receptor (3 hours) were 12 nM and 2350 nM, respectively. Moreover, on human V1a receptor, the “ratio IC50 hV2/hV1a” value stood at 195.8.

Turning to `O=C(Nc1ncccc1-n1cnc(Cn2nc(-c3ccc(Cl)cc3)n(C[C@H](O)C(F)(F)F)c2=O)n1)C1CC1F` (single isomer, unassigned) [Example 78], on human V1a receptor, the IC50 was 19.5 nM and the “ratio IC50 hV2/hV1a” value came to 187.2. Moreover, the IC50 on human V2 receptor (3 hours) was 3650 nM.

On to `O=C(Nc1ncccc1-n1cnc(Cn2nc(-c3ccc(Cl)cc3)n(C[C@H](O)C(F)(F)F)c2=O)n1)C1CC1F` (single isomer, unassigned) [Example 86], for which, on human V1a receptor, the IC50 came to 4.5 nM and the “ratio IC50 hV2/hV1a” value is listed as 311.1. The IC50 on human V2 receptor (3 hours) turned out to be 1400 nM.

For the molecule `O=C1CCC(NC(=O)c2ccccc2-n2cnc(Cn3nc(-c4ccc(Cl)cc4)n(CC(O)C(F)(F)F)c3=O)n2)CN1` (single isomer, unassigned) [Example 192, 2-[3-({3-(4-Chlorophenyl)-5-oxo-4-[3,3,3-trifluoro-2-hydroxypropyl]-4,5-dihydro-1H-1,2,4-triazol-1-yl}methyl)-1H-1,2,4-triazol-1-yl]-N-[6-oxopiperidin-3-yl]benzamide], at human V1a receptor, the IC50 worked out at 74.5 nM and the “ratio IC50 hV2/hV1a” value is on record as 98.7. Also, at human V2 receptor (3 hours), the IC50 turned out to be 7350 nM.
